Results: patent US20260285850A1, “SUBSTITUTED OXAZOLIDINONES AND IMIDAZOLINONES AS HERBICIDES” (FMC CORPORATION, priority 2023, published 2026)

Key:
Format in all cases: in vivo
soybean (Glycine max) [1] = assay: Test A preemergence soil spray, visual injury rating 0-100; conditions: 10 days
Outline: (§1)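 Loam-sand pots got test material in surfactant-containing solvent, either as a directed soil spray before emergence or on plants at the one- to two-leaf stage. Visual injury (0-100) was read after ten greenhouse days.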

[2] = test system: ryegrass, Italian (italian ryegrass, Lolium multiflorum); assay: as above; conditions: 10 days
Outline: as §1

[3] = test system: ragweed (common ragweed, Ambrosia artemisiifolia); assay: as above; conditions: 10 days
Outline: as §1

[4] = test system: wheat (Triticum aestivum); assay: as above; conditions: 10 days
Outline: as §1

[5] = test system: blackgrass (Alopecurus myosuroides); assay: as above; conditions: 10 days
Outline: as §1

kochia (Bassia scoparia) [6] = assay: as above; conditions: 10 days
Outline: as §1

[7] = test system: green foxtail (Setaria viridis); assay: as above; conditions: 10 days
Outline: as §1

[8] = test system: palmer (palmer amaranth, palmer pigweed, Amaranthus palmeri); assay: as above; conditions: 10 days
Outline: as §1

[9] = test system: oat, wild (wild oat, Avena fatua); assay: as above; conditions: 10 days
Outline: as §1

corn (Zea mays) [10] = assay: as above; conditions: 10 days
Outline: as §1

[11] = test system: barnyardgrass (Echinochloa crus-galli); assay: as above; conditions: 10 days
Outline: as §1

rice (Oryza sativa) = assay: Test B flooded paddy test, visual plant response rating 0-100; conditions: 250 g ai/ha, Flood, applied to paddy water, evaluated after 13 days
Outline: (§2)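 Visual evaluation after 13 days. Water-applied treatment, 3 cm flood depth held constant, plants at 2-leaf stage at treatment.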

[12] = test system: barnyardgrass (Echinochloa crusgalli); assay: as above; conditions: 250 g ai/ha, Flood, applied to paddy water, evaluated after 13 days
Outline: as §2

[13] = test system: sedge, umbrella (small-flower umbrella sedge, Cyperus difformis); assay: as above; conditions: 250 g ai/ha, Flood, applied to paddy water, evaluated after 13 days
Outline: as §2

[14] = test system: ducksalad (Heteranthera limosa); assay: as above; conditions: 250 g ai/ha, Flood, applied to paddy water, evaluated after 13 days
Outline: as §2

soybean (Glycine max) [15] = assay: Test A postemergence application, visual injury rating 0-100
Outline: as §1

[16] = test system: ryegrass, Italian (italian ryegrass, Lolium multiflorum); assay: as above
Outline: as §1

[17] = test system: ragweed (common ragweed, Ambrosia artemisiifolia); assay: as above
Outline: as §1

[18] = test system: wheat (Triticum aestivum); assay: as above
Outline: as §1

[19] = test system: blackgrass (Alopecurus myosuroides); assay: as above
Outline: as §1

kochia (Bassia scoparia) [20] = assay: as above
Outline: as §1

[21] = test system: green foxtail (Setaria viridis); assay: as above
Outline: as §1

[22] = test system: palmer (palmer amaranth, palmer pigweed, Amaranthus palmeri); assay: as above
Outline: as §1

[23] = test system: oat, wild (wild oat, Avena fatua); assay: as above
Outline: as §1

[24] = test system: galium (catchweed bedstraw, Galium aparine); assay: as above
Outline: as §1

corn (Zea mays) [25] = assay: as above
Outline: as §1

[26] = test system: barnyardgrass (Echinochloa crus-galli); assay: as above
Outline: as §1

[27] = 62 g ai/ha, 0 = no effect, 100 = complete control
[28] = 62 g ai/ha, postemergence, 10 days, 0 = no effect, 100 = complete control
[29] = Postemergence, 16 g ai/ha, greenhouse 10 days, 0 no effect, 100 complete control

## C=CC1(C(=O)NC2CC=C(C(=O)OC)C2)CN(c2cc(F)cc(F)c2)C(=O)O1 (racemic) [Compound 169]
Soybean (Glycine max) [1]; 16 g ai/ha, 0 to 100 scale
  Soybean plant response rating: 10
Soybean (Glycine max) [1]; [27]
  Soybean plant response rating (0-100): 20
[2]; 16 g ai/ha, 0 to 100 scale
  Ryegrass, Italian plant response rating: 90
[2]; [27]
  Ryegrass, Italian plant response rating (0-100): 90
[3]; 16 g ai/ha, 0 to 100 scale
  Ragweed plant response rating: 0
[3]; [27]
  Ragweed plant response rating (0-100): 10
[4]; 16 g ai/ha, 0 to 100 scale
  Wheat plant response rating: 80
[4]; [27]
  Wheat plant response rating (0-100): 90
[5]; 16 g ai/ha, 0 to 100 scale
  Blackgrass plant response rating: 0
[5]; [27]
  Blackgrass plant response rating (0-100): 30
Kochia (Bassia scoparia) [6]; 16 g ai/ha, 0 to 100 scale
  Kochia plant response rating: 0
Kochia (Bassia scoparia) [6]; [27]
  Kochia plant response rating (0-100): 40
[7]; 16 g ai/ha, 0 to 100 scale
  Foxtail, Green plant response rating: 0
[7]; [27]
  Foxtail, Green plant response rating (0-100): 90
[8]; 16 g ai/ha, 0 to 100 scale
  Pigweed, Palmer plant response rating: 0
[8]; [27]
  Pigweed, Palmer plant response rating (0-100): 50
[9]; 16 g ai/ha, 0 to 100 scale
  Oat, Wild plant response rating: 20
[9]; [27]
  Oat, Wild plant response rating (0-100): 50
Corn (Zea mays) [10]; 16 g ai/ha, 0 to 100 scale
  Corn plant response rating: 0
Corn (Zea mays) [10]; [27]
  Corn plant response rating (0-100): 60
[11]; 16 g ai/ha, 0 to 100 scale
  Barnyardgrass plant response rating: 10
[11]; [27]
  Barnyardgrass plant response rating (0-100): 90
Rice (Oryza sativa)
  Plant response rating, Rice (0 to 100 scale, 0 is no effect and 100 is complete control): 95
[12]
  Plant response rating, Barnyardgrass (0 to 100 scale, 0 is no effect and 100 is complete control): 90
[13]
  Plant response rating, Sedge, Umbrella (0 to 100 scale, 0 is no effect and 100 is complete control): 100
[14]
  Plant response rating, Ducksalad (0 to 100 scale, 0 is no effect and 100 is complete control): 100
Soybean (Glycine max) [15]; [28]
  Soybean plant response rating (0-100): 70
Soybean (Glycine max) [15]; [29]
  Soybean plant response rating (0 to 100 scale): 60
[16]; [28]
  Ryegrass, Italian plant response rating (0-100): 90
[16]; [29]
  Ryegrass, Italian plant response rating (0 to 100 scale): 80
[17]; [28]
  Ragweed plant response rating (0-100): 70
[17]; [29]
  Ragweed plant response rating (0 to 100 scale): 0
[18]; [28]
  Wheat plant response rating (0-100): 90
[18]; [29]
  Wheat plant response rating (0 to 100 scale): 90
[19]; [28]
  Blackgrass plant response rating (0-100): 100
[19]; [29]
  Blackgrass plant response rating (0 to 100 scale): 100
Kochia (Bassia scoparia) [20]; [28]
  Kochia plant response rating (0-100): 80
Kochia (Bassia scoparia) [20]; [29]
  Kochia plant response rating (0 to 100 scale): 80
[21]; [28]
  Foxtail, Green plant response rating (0-100): 90
[21]; [29]
  Foxtail, Green plant response rating (0 to 100 scale): 90
[22]; [28]
  Pigweed, Palmer plant response rating (0-100): 70
[22]; [29]
  Pigweed, Palmer plant response rating (0 to 100 scale): 20
[23]; [28]
  Oat, Wild plant response rating (0-100): 90
[23]; [29]
  Oat, Wild plant response rating (0 to 100 scale): 90
[24]; [28]
  Galium plant response rating (0-100): 80
[24]; [29]
  Galium plant response rating (0 to 100 scale): 70
Corn (Zea mays) [25]; [28]
  Corn plant response rating (0-100): 100
Corn (Zea mays) [25]; [29]
  Corn plant response rating (0 to 100 scale): 100
[26]; [28]
  Barnyardgrass plant response rating (0-100): 100
[26]; [29]
  Barnyardgrass plant response rating (0 to 100 scale): 100
